Measured values as given in patent US12497610B2, “Functional genomics using CRISPR-CAS systems for saturating mutagenesis of non-coding elements, compositions, methods, libraries and applications thereof” (THE BROAD INSTITUTE, INC., priority 2015, dated 2025).

Test system: human BCL11A erythroid enhancer
Experiment: Tiled pooled CRISPR-Cas9 screen for in situ functional mapping of the human BCL11A erythroid enhancer (HbF-high/HbF-low sort, sgRNA deep sequencing)
Format: cell-based
Settings: for Enrichment Score: HbF enrichment, human library NGG and NGG RC sgRNAs filtered for enrichment score >0.259; for Dropout Score: human library sgRNAs that produced HbF enrichment over 0.259
Excerpt: Every 20-mer sequence upstream of an NGG or NAG PAM sequence on the sense or anti-sense strand was identified for both the human and mouse orthologous +55, +58, and +62 DNase hypersensitive site (DHS) as well as BCL11A/BCL11a exon 2. Relative to the human hg 19 reference genome, a reference was used with the following substitutions to approximate a common low-HbF associated haplotype: rs1427407-G, rs1896293-T, rs6706648-T, rs6738440-G, rs7606173-C. Each of the sgRNA oligos were synthesized as previously described (37,41,64) and cloned using a Gibson Assembly master mix (New England Biolabs) into lentiGuide-Puro (Addgene plasmid ID 52963) BsmBI digested, PCR purified, and dephosphorylated. Gibson Assembly products were transformed to electrocompetent E. cloni cells (Lucigen). Sufficient colonies were isolated to ensure 90X library coverage for both human and mouse libraries. Plasmid libraries were deep sequenced (described below) to confirm representation.
Tiled Pooled CRISPR-Cas9 Screen for In Situ Functional Mapping the Human BCL11A Erythroid Enhancer.
HUDEP clone 2 (HUDEP-2) was utilized as previously described by from Nakamura and colleagues (49). HUDEP-2 cells were expanded in StemSpan SFEM (Stem Cell Technologies) supplemented with 10^−6 M dexamethasone (Sigma), 100 ng/mL human stem cell factor (SCF) (R&D), 3 IU/mL erythropoietin (Amgen), 1% L-glutamine (Life Technologies), and 2% penicillin/streptomycin (Life Technologies). 1 μg/mL doxycycline (Sigma) was included in the culture to induce expression of the human papilloma virus type 16 E6/E7 genes (49). HUDEP-2 cells were differentiated in Iscove's Modified Dulbecco's Medium (IMDM) supplemented with 330 μg/mL halo-transferrin (Sigma), 10 μg/mL recombinant human insulin (Sigma), 2 IU/mL heparin (Sigma), 5% human solvent detergent pooled plasma AB (Rhode Island Blood Center), 3 IU/mL erythropoietin (Amgen), 100 ng/mL human stem cell factor (SCF) (R&D), 1 μg/mL doxycycline (Sigma), 1% L-glutamine (Life Technologies), and 2% penicillin/streptomycin (Life Technologies).
HUDEP-2 cells with stable Cas9 expression were transduced at low multiplicity with the human sgRNA library lentivirus pool while in expansion medium. […] Cell numbers were maintained throughout the experiment at levels adequate to exceed 1000× representation of the library. 10 μg/mL blasticidin (Sigma) and 1 μg/mL puromycin (Sigma) were added 24 hours after transduction to select for lentiviral library integrants in cells with Cas9. Cells were cultured in expansion media for one week followed by differentiation media for an additional week.
Intracellular staining was performed by fixing cells with 0.05% glutaraldehyde (grade II) (Sigma) for 10 minutes at room temperature. Cells were centrifuged for 5 minutes at 350 g and then resuspended in 0.1% Triton-X100 (Life Technologies) for 5 minutes at room temperature for permeabilization. Triton X-100 was diluted with phosphate buffered saline (PBS) and then centrifuged at 350 g for 15 minutes. Cells were stained with anti-human antibodies for HbF (clone HbF-1 with FITC or APC conjugation; Life Technologies) and B-hemoglobin antibody (clone 37-8 with PerCP-Cy5 or PE conjugation; Santa Cruz) for 20 minutes in the dark. Cells were washed to remove unbound antibody prior to FACS analysis. 0.2 μg HbF and 2 μg of HbA CB-hemoglobin) antibodies were used per 5 million cells. Control cells exposed to a nontargeting sgRNA sample and BCL11A exon 2 were used as negative and positive controls respectively to establish flow cytometry conditions. Populations of cells with the top and bottom 10% of expression of HbF were sorted by FACS.
After sorting the HbF-high and HbF-low pools, library preparation and deep sequencing was performed as previously described (37). Briefly, genomic DNA was extracted using the Qiagen Blood and Tissue kit. […]

Row | Substance | Enrichment Score | Dropout Score
1 | BCL_01495_H_D55 (guide AGGGAGAAATGAGACAAAAGNGGRC; listed as DNA, chemistry not given here) | 0.2643 | −0.4932
2 | BCL_01497_H_D55 (guide AAGAGGCCACTGAGTCCTTTNGGRC; listed as DNA, chemistry not given here) | 0.43 | 0.4562
3 | BCL_01617_H_D58 (guide CTAACAGTTGCTTTTATCACNGGRC; listed as DNA, chemistry not given here) | 2.495 | −0.7193
4 | BCL_01618_H_D58 (guide TTGCTTTTATCACAGGCTCCNGGRC; listed as DNA, chemistry not given here) | 0.8561 | −0.8127
5 | BCL_01619_H_D58 (guide TTTTATCACAGGCTCCAGGANGGRC; listed as DNA, chemistry not given here) | 1.662 | −0.3147
6 | BCL_01620_H_D58 (guide TTTATCACAGGCTCCAGGAANGGRC; listed as DNA, chemistry not given here) | 1.38 | −0.9481
7 | BCL_01621_H_D58 (guide CACAGGCTCCAGGAAGGGTTNGGRC; listed as DNA, chemistry not given here) | 2.319 | −0.6005
8 | BCL_01622_H_D58 (guide GAAGGGTTTGGCCTCTGATTNGGRC; listed as DNA, chemistry not given here) | 1.378 | −0.6695
9 | BCL_01623_H_D58 (guide AAGGGTTTGGCCTCTGATTANGGRC; listed as DNA, chemistry not given here) | 1.285 | −0.2669
10 | BCL_01624_H_D58 (guide GGTTTGGCCTCTGATTAGGGNGGRC; listed as DNA, chemistry not given here) | 1.472 | −0.7713
11 | BCL_01625_H_D58 (guide GTTTGGCCTCTGATTAGGGTNGGRC; listed as DNA, chemistry not given here) | 0.3718 | −0.9451
12 | BCL_01626_H_D55 (guide TTTGGCCTCTGATTAGGGTGNGGRC; listed as DNA, chemistry not given here) | 1.336 | −0.2724
13 | BCL_01627_H_D58 (guide TTGGCCTCTGATTAGGGTGGNGGRC; listed as DNA, chemistry not given here) | 0.3054 | −0.2564
14 | BCL_01629_H_D58 (guide TCTGATTAGGGTGGGGGCGTNGGRC; listed as DNA, chemistry not given here) | 1.104 | 0.1807
15 | BCL_01631_H_D58 (guide ATTAGGGTGGGGGCGTGGGTNGGRC; listed as DNA, chemistry not given here) | 0.4098 | −0.1615
16 | BCL_01634_H_D58 (guide TGGGTGGGGTAGAAGAGGACNGGRC; listed as DNA, chemistry not given here) | 0.4147 | −1.078
17 | BCL_01637_H_D58 (guide CCATCGGTGGCCGTTTGCCCNGGRC; listed as DNA, chemistry not given here) | 0.669 | −0.5016
18 | BCL_01638_H_D58 (guide CATCGGTGGCCGTTTGCCCANGGRC; listed as DNA, chemistry not given here) | 0.635 | −0.5928
19 | BCL_01639_H_D58 (guide ATCGGTGGCCGTTTGCCCAGNGGRC; listed as DNA, chemistry not given here) | 0.8219 | −0.8981

Row | Substance | Enrichment Score | Dropout Score
20 | BCL_01640_H_D58 (guide TCGGTGGCCGTTTGCCCAGGNGGRC; listed as DNA, chemistry not given here) | 0.3658 | −1.013
21 | BCL_01641_H_D55 (guide CGGTGGCCGTTTGCCCAGGGNGGRC; listed as DNA, chemistry not given here) | 0.282 | −0.4633
22 | BCL_01665_H_D58 (guide TGTAACTAATAAATACCAGGNGGRC; listed as DNA, chemistry not given here) | 0.4418 | −0.6516
23 | BCL_01669_H_D58 (guide CCAGCTGAAGAAAGAACATTNGGRC; listed as DNA, chemistry not given here) | 0.3196 | −0.00075
24 | BCL_01684_H_D58 (guide ACAACCTCCTTGTTTACAGANGGRC; listed as DNA, chemistry not given here) | 0.4945 | 0.3674
25 | BCL_01788_H_D62 (guide GAGATTTACTCTTGTTGCCCNGGRC; listed as DNA, chemistry not given here) | 1.29 | −5.463
26 | BCL_01790_H_D62 (guide TTGCCCGGGCTGGAATGCAANGGRC; listed as DNA, chemistry not given here) | 0.4673 | −8.123
27 | BCL_01794_H_D62 (guide CAGGCATGTATTACCATGCCNGGRC; listed as DNA, chemistry not given here) | 0.2801 | −1.011
28 | BCL_01799_H_D62 (guide CTCAGGTGATCCTCCTGCCCNGGRC; listed as DNA, chemistry not given here) | 0.9108 | −9.478
29 | BCL_01800_H_D62 (guide GCCCCGGCCTCCCAAAGTGCNGGRC; listed as DNA, chemistry not given here) | 0.6113 | −7.65
30 | BCL_01801_H_D62 (guide CCCCGGCCTCCCAAAGTGCTNGGRC; listed as DNA, chemistry not given here) | 0.6113 | −8.0566
31 | BCL_01825_H_D62 (guide ATTTGCTCTTCTCCAGGGTGNGGRC; listed as DNA, chemistry not given here) | 0.2818 | −0.3945
32 | BCL_01826_H_D62 (guide TTTGCTCTTCTCCAGGGTGTNGGRC; listed as DNA, chemistry not given here) | 0.4003 | −0.3386
33 | BCL_01828_H_D62 (guide CTCTTCTCCAGGGTGTGGGGNGGRC; listed as DNA, chemistry not given here) | 0.3485 | −0.391
34 | BCL_01829_H_D62 (guide TGTGGGGTGGCTGTTTAAAGNGGRC; listed as DNA, chemistry not given here) | 0.496 | −0.1469
35 | BCL_01831_H_D62 (guide GGGTGGCTGTTTAAAGAGGGNGGRC; listed as DNA, chemistry not given here) | 0.4104 | −0.1486
36 | BCL_01833_H_D62 (guide AGTTCAAGTAGATATCAGAANGGRC; listed as DNA, chemistry not given here) | 0.6116 | 0.2289
37 | BCL_01834_H_D62 (guide TATCAGAAGGGAACTGTTTGNGGRC; listed as DNA, chemistry not given here) | 0.4029 | 0.02327
